The values below come from patent US20210255184A1, “Biosensor Device and Methods” (The New Zealand Institute for Plant and Food Research …, priority 2018, published 2021).

The test has as its target T1, Or10a (Drosophila melanogaster, UniProt Q9VYZ1).
T1 construct: his-tag; made in house; host or cells: baculovirus-infected Sf9 cells
T1 sequence (Q9VYZ1 1-406): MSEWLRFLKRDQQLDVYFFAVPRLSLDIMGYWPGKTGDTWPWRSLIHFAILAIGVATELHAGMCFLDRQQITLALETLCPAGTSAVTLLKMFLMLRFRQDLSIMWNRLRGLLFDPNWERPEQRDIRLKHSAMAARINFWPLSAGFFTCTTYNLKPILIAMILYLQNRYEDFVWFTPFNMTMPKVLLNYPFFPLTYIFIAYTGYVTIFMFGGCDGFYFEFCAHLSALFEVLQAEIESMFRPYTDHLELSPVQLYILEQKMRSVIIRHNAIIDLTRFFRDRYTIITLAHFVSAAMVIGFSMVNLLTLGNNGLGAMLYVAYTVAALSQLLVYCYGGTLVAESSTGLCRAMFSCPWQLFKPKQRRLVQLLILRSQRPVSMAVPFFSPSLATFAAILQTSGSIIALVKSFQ
Put plainly: EIS sensor, Or10a liposomes on gold electrode. Format: biochemical. How it is done: Prior to their use, liposomes were defrosted on ice and then destabilized by incubating with 0.2% CHAPS for 15 min at room temperature. Then 200 μg of purified odorant receptor^28 was added to 1 mg of liposomes and rotated at 10 rpm for 1 h at room temperature. Excess detergent was removed by four additions of 25 mg of Bio-Beads SM-2 (Bio-Rad, USA) and incubation at 4° C. for 30 min, 2 h, overnight and a further 2 h respectively. The Bio-Beads were removed after each incubation period. The OrX or OrX/Orco integrated liposomes were pelleted by centrifugation at 100,000 g for 1 h, and were resuspended in 500 μL of rehydration buffer. Integration of OrXs and Orco into liposomes was assessed by density gradient ultracentrifugation (DGU) using Accudenz (Accurate Chemical & Scientific Corporation, USA). The integrated liposomes were brought to 40% Accudenz by the addition of an equal volume of 80% Accudenz solution, placed at the bottom of an ultra-centrifugation tube, and overlaid with 30% Accudenz solution, and DGU buffer (25 mM HEPES pH 7.5, 100 mM NaCl, 10% glycerol). The sample was then centrifuged at 100,000 g for 4 h at 4° C. Liposomes will float to the top of the gradient after Accudenz DGU due to their low density.
2 mM MHA was prepared by dissolving 1.36 μl of MHA in 5 ml ethanol (AR grade). The cleaned electrodes were immersed into MHA solution and incubated overnight. The next day, all the electrodes were washed with ethanol and deionised water thoroughly in order to remove the unreacted acid. A 2:1 mol:mol ratio of EDC:NHS (100 mM EDC, 50 mM NHS) was prepared in 2 ml PBS (pH=6.5) solution. Then, the electrodes were covered in 100 μl of this solution at 28° C. for an hour to activate the carboxylic (COOH) groups of the MHA.
PBS solution was prepared by immersing one tablet of PBS in 200 ml of milli-Q water (according to manufacturers instructions) and filtered using 0.2-μm syringe filter. The pH of the prepared buffer solution was measured with a pH meter. OrX liposomes or OrX/Orco liposomes were diluted 100 fold in PBS buffer solution (pH=7.4) and the COOH-activated electrodes were incubated in that buffer solution at room temperature for one hour. Then, the electrodes were washed extensively with PBS buffer solution to wash out any unbound liposomes.
PBS (pH=7.4) was used as an electrolyte to conduct electrochemical measurements. PBS buffer was degassed for about 30 minutes prior to electrochemical measurements. Odorant solutions of concentration ranging from 1 aM to 1 μM were prepared by sequential dilution in PBS solution containing 1% DMSO. OR immobilized electrodes were incubated in relevant odorant solution for ˜30 minutes each and washed gently with PBS before EIS measurements.
EIS measurements were done in a 3 electrode cell containing Ag/AgCl (3 M NaCl, 0.209 V vs. SHE) reference electrode, coiled platinum wire as a counter electrode and the gold disk as a working electrode at a fixed voltage of −0.7 using PalmSens potentiostat. Degassed PBS was used as an electrolyte.
EIS measurements were performed on gold electrodes functionalised with OrX liposomes (either Or10a or Or22a), OrX/Orco liposomes, or empty liposomes prior to and after target ligand or control ligand incubation with increasing concentrations (1 aM to 100 μM). Dose response curves were obtained by defining sensor response as −(ΔRp/R^op) versus log[C(Ligand)]. FIG. 4a presents the EIS response in terms of Nyquist plot for the Or10a liposome functionalized sensors when exposed to a solution containing one of the known target ligands of Or10a, methyl salicylate, at various concentrations. […] The dose response curve (FIG. 4b) was obtained by plotting the change in polarization resistance −(ΔRp/R^op) versus log[conc(Ligand)], as the sensor response. Here, Rp is the polarization resistance after Or10a liposome-target interaction and R^op is the polarization resistance before Or10a liposome-target interaction.

Regarding `CCCCCC(=O)OC` [methyl hexanoate], the “sensor response to control ligand” value (EIS dose response) is “negligible response”.

Usually EC50 stands for the concentration needed to bring the measured effect to its halfway point. `COC(=O)c1ccccc1O` [methyl salicylate]: the “limit of detection (LOD)” value (EIS dose response, ligand 1 aM to 100 μM) was determined as 0.1 pM. Besides, the concentration for a half-maximal effect (EC50) runs as follows: (Table 1, approximate) roughly 0.1 nM; (Table 3, fitted dose response) 0.0022 nM. Also, the Sensitivity limit (Table 1, * estimated visually from dose response graph) was ~10^−10 M*. For the same compound, the “Detection Range” value (Table 3) is listed as 10^−13 to 10^−7 M.
